Assay results as given in paper PMC10728955 (RSC Advances, 2023).

What was measured:
MCF-7 cells [1] = test: cells; conditions: Homo sapiens, MCF7, read-out: In vitro cytotoxicity IC50, MCF-7
HepG2 cells = test: cells; conditions: Homo sapiens, HepG2, read-out: In vitro cytotoxicity IC50, HepG2
MCF-7 cells [2] = test: Cell migration and scratch wound healing assay; format: cell-based
MCF-7 cells [3] = test: Cell cycle analysis by flow cytometry; format: cell-based; conditions: 0.041 μM, 72 h
[4] = system: normal human lung cells (WI-38); test: cells; conditions: WI-38, read-out: WI-38 IC50
Human VEGFR-2 = Human VEGFR-2 (Homo sapiens, UniProt P35968); test: In vitro VEGFR-2 inhibition, VEGFR-2 ELISA kit; format: biochemical
[5] = system: normal human lung cells (WI-38); conditions: WI-38 versus HepG2
Bcl-2 = format: cell-based; conditions: MCF-7, 0.04 μM
MCF-7 cells [6] = test: Apoptosis assay, annexin V-FITC/PI; format: cell-based; conditions: 0.04 μM, 72 h

Chain of Human VEGFR-2 (P35968 20-1356): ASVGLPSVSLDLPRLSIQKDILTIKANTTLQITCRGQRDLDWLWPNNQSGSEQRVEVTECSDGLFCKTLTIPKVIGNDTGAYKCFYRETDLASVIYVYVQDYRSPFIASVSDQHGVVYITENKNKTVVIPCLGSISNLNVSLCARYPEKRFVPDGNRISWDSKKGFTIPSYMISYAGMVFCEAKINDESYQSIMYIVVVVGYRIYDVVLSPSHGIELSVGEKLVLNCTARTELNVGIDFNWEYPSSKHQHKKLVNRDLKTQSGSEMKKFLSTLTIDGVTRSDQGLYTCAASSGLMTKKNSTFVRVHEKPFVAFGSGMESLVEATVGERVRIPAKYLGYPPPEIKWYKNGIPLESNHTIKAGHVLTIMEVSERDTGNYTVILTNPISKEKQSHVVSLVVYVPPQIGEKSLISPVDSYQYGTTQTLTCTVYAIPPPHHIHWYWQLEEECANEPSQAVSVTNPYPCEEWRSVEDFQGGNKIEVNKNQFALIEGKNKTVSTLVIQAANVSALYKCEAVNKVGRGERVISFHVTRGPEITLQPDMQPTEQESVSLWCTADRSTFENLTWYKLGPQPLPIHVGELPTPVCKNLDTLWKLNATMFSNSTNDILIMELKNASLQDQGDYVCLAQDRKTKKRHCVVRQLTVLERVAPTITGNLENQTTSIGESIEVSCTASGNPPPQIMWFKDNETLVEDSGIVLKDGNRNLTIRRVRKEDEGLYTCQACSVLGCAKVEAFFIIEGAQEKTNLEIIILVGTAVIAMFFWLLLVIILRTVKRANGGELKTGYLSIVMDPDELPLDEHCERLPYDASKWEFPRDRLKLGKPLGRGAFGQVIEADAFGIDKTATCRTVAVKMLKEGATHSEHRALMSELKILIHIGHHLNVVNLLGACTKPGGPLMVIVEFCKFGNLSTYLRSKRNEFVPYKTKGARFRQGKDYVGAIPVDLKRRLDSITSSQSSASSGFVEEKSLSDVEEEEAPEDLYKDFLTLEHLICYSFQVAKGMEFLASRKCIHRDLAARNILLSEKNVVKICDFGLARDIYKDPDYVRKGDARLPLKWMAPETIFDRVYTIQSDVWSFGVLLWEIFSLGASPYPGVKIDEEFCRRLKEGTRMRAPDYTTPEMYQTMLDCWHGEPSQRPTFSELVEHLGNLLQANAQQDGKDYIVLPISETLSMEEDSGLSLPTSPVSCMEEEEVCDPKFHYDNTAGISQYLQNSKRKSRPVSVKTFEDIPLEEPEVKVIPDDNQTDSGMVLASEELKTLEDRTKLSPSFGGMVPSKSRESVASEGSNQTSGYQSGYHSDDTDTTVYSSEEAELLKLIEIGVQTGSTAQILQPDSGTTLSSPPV

Question: For `COc1ccc(-n2nc(C(C)=O)s/c2=N\N=C(/C)c2ccc(NC(=O)c3ccc(C)cc3)cc2)cc1` [Compound 18e, N-(4-((E)-1-(((Z)-5-Acetyl-3-(4-methoxyphenyl)-1,3,4-thiadiazol-2(3H)-ylidene) hydrazono)ethyl)phenyl)-4-methylbenzamide], which IC50 (MCF-7 cells [1]) is on record?
Answer: 190 ± 45 nM

Question: And the IC50 (HepG2 cells)?
Answer: 210 ± 45 nM

Question: For `CC(=O)c1nn(-c2ccc(Cl)cc2)/c(=N/N=C(\C)c2ccc(NC(=O)c3ccc(C)cc3)cc2)s1` [Compound 18f, N-(4-((E)-1-(((Z)-5-Acetyl-3-(4-chlorophenyl)-1,3,4-thiadiazol-2(3H)-ylidene) hydrazono)ethyl)phenyl)-4-methylbenzamide], which IC50 (MCF-7 cells [1]) is on record?
Answer: 440 ± 65 nM

Question: And the IC50 (HepG2 cells)?
Answer: 180 ± 18 nM

Question: With `CNC(=O)c1cc(Oc2ccc(NC(=O)Nc3ccc(Cl)c(C(F)(F)F)c3)cc2)ccn1` [Sorafenib, reference compound] as the molecule, how does the IC50 (MCF-7 cells [1]) read?
Answer: 150 ± 13 nM

Question: And the IC50 (HepG2 cells)?
Answer: 140 ± 52 nM

Question: For `COc1ccc(-n2nc(C(C)=O)s/c2=N\N=C(/C)c2ccc(NC(=O)c3ccc(Cl)cc3)cc2)cc1` [Compound 18c, N-(4-((E)-1-(((Z)-5-Acetyl-3-(4-methoxyphenyl)-1,3,4-thiadiazol-2(3H)-ylidene) hydrazono)ethyl)phenyl)-4-chlorobenzamide], which IC50 (MCF-7 cells [1]) is on record?
Answer: 190 ± 14 nM

Question: And the IC50 (HepG2 cells)?
Answer: 160 ± 32 nM

Question: `COc1ccc(-n2nc(C(C)=O)s/c2=N\N=C(/C)c2ccc(NC(=O)c3ccccc3)cc2)cc1` [Compound 18a, N-(4-((E)-1-(((Z)-5-Acetyl-3-(4-methoxyphenyl)-1,3,4-thiadiazol-2(3H)-ylidene) hydrazono)ethyl)phenyl) benzamide] was tested. Which IC50 (MCF-7 cells [1]) did it give?
Answer: 160 ± 17 nM

Question: And the IC50 (HepG2 cells)?
Answer: 800 ± 12 nM

Question: `CC(=O)c1nn(-c2ccc(Cl)cc2)/c(=N/N=C(\C)c2ccc(NC(=O)c3ccc(Cl)cc3)cc2)s1` [Compound 18d, N-(4-((E)-1-(((Z)-5-Acetyl-3-(4-chlorophenyl)-1,3,4-thiadiazol-2(3H)-ylidene) hydrazono)ethyl)phenyl)-4-chlorobenzamide] was tested. Which IC50 (MCF-7 cells [1]) did it give?
Answer: 5000 ± 192 nM

Question: And the IC50 (HepG2 cells)?
Answer: 6170 ± 19 nM

Question: Which results are given for `CC(=O)c1nn(-c2ccc(Cl)cc2)/c(=N/N=C(\C)c2ccc(NC(=O)c3ccccc3)cc2)s1` [Compound 18b, N-(4-((E)-1-(((Z)-5-Acetyl-3-(4-chlorophenyl)-1,3,4-thiadiazol-2(3H)-ylidene) hydrazono)ethyl)phenyl) benzamide]?
Answer: IC50 (MCF-7 cells [1]): 220 ± 98 nM; IC50 (HepG2 cells): 200 ± 11 nM

Question: Which “Area difference (%)” value (MCF-7 cells [2]; MCF-7, after 48 h) does the source give for `COc1ccc(-n2nc(C(C)=O)s/c2=N\N=C(/C)c2ccc(NC(C)=O)cc2)cc1` [Compound 14, N-(4-((E)-1-(((Z)-5-acetyl-3-(4-methoxyphenyl)-1,3,4-thiadiazol-2(3H)-ylidene)hydrazineylidene)ethyl)phenyl)acetamide] here?
Answer: 361.667%

Question: And the “RM (rate of migration)” value (MCF-7 cells [2]; MCF-7, after 48 h)?
Answer: 7.532 μm

Question: What about the “Wound area at 0 h” value (MCF-7 cells [2]; MCF-7 scratch assay) of the same molecule?
Answer: 933.000 μm^2

Question: What about the “Wound area at 24 h” value (MCF-7 cells [2]; MCF-7 scratch assay) of the same molecule?
Answer: 836.333 μm^2

Question: What about the “Wound area at 48 h” value (MCF-7 cells [2]; MCF-7 scratch assay) of the same molecule?
Answer: 571.333 μm^2

Question: And the “Wound width at 0 h” value (MCF-7 cells [2]; MCF-7 scratch assay)?
Answer: 932.006 μm

Question: What about the “Wound width at 24 h” value (MCF-7 cells [2]; MCF-7 scratch assay) of the same molecule?
Answer: 835.443 μm

Question: And the “Wound width at 48 h” value (MCF-7 cells [2]; MCF-7 scratch assay)?
Answer: 570.472 μm

Question: And the “Cell cycle distribution (%) G0–G1” value (MCF-7 cells [3])?
Answer: 68.43%

Question: What about the “Cell cycle distribution (%) G2/M” value (MCF-7 cells [3]) of the same molecule?
Answer: 9.3%

Question: And the “Cell cycle distribution (%) S” value (MCF-7 cells [3])?
Answer: 22.27%

Question: What about the “Increase of cell population at G0–G1 phase versus control” value (MCF-7 cells [3]) of the same molecule?
Answer: 1.09 fold

Question: And the IC50 (MCF-7 cells [1])?
Answer: 40 ± 9 nM

Question: What about the IC50 [4] of the same molecule?
Answer: 140 nM

Question: And the IC50 (Human VEGFR-2; VEGFR-2 IC50, as printed in section 3.2.3)?
Answer: 243 nM

Question: What about the IC50 (Human VEGFR-2; VEGFR-2 IC50, as printed in the abstract) of the same molecule?
Answer: 103 nM

Question: What about the “Selectivity index, HepG2” value [5] of the same molecule?
Answer: ~1.28

Question: And the “Lowering of Bcl-2 level versus control” value (Bcl-2)?
Answer: 6.2 fold

Question: And the “RT-PCR fold change, Bcl2” value (Bcl-2; control = 1)?
Answer: 0.159 fold

Question: And the IC50 (HepG2 cells)?
Answer: 180 ± 6 nM

Question: And the “Early apoptosis (%)” value (MCF-7 cells [6])?
Answer: 16.53%

Question: What about the “Late apoptosis (%)” value (MCF-7 cells [6]) of the same molecule?
Answer: 29.57%

Question: And the “Necrosis (%)” value (MCF-7 cells [6])?
Answer: 5.95%

Question: And the “Necrosis percentage enhancement versus control” value (MCF-7 cells [6])?
Answer: four-fold

Question: And the “Total apoptosis (%)” value (MCF-7 cells [6])?
Answer: 52.05%

Question: What about the “Total apoptosis enhancement versus control” value (MCF-7 cells [6]) of the same molecule?
Answer: 22 fold
